Experiments:
MTTP = MTTP enzyme activity in liver of HFD animals (Roar Biomedical); format: in vivo, mice; conditions: HNG 2 mg/kg daily, p<0.01
From the text: (§1) To understand the mechanisms through which Humanin decreases liver lipid content, representative genes involved in lipid synthesis (SREBP-1, FAS), lipid oxidation (CPT1b) and lipid packaging and export from liver were studied. […] The role of MTTP was confirmed by studying enzyme activity.

[1] = system: Microsomal triglyceride transport protein (MTTP); test: Liver gene expression in HFD animals: MTTP; format: in vivo, mice; conditions: livers of HFD animals, HNG 2 mg/kg daily
From the text: as §1

[2] = system: triglyceride secretion from liver; test: Acute ICV infusion of HNG with tyloxapol injection, plasma TG levels, mice; design: species or system C57BLK6 mice; conditions: mouse, in vivo
Procedure: (§2) The effect of humanin analog, HNG, on hepatic lipid fluxes was investigated. In the acute study, HNG was infused into third ventricle (ICV) of awake, unstressed and chronically catheterized Sprague-Dawley rats and C57BLK6 mice and studied plasma triglyceride (TG) levels following an injection of Tyloxapol (Triton WR1339, Sigma-Aldrich Corp, St. Louis, Mo.), an inhibitor of TG clearance. Groups of animals were also challenged with high fat diet (HFD) of 60% fat for one month and were treated with either daily injections of saline or of HNG (2 mg/kg). Body weight and Food intake were monitored twice a week. At the end of one month, liver fat was assessed both by histology and estimation of tissue triglycerides and plasma was collected. Total amount of visceral fat (VF) was determined and the specific depots were meticulously dissected and weighed. Tissue samples were snap-frozen for subsequent analysis.
(§3) With infusion of tyloxapol, there was a steady increase in plasma triglyceride levels in both groups from inhibition of TG clearance. […] The rate of TG secretion was calculated in the animals based on plasma triglyceride levels at 0 and 120 min time points using the following equation: secretion rate of TG/hr mg/min=(TG at 120 min−TG at 0 min)/number of hours.

[3] = system: triglyceride secretion from liver; test: Acute ICV infusion of HNG with tyloxapol injection, plasma TG levels, rats; format: in vivo, Sprague-Dawley rats
Procedure: as §2
Acute effects of Humanin on liver fluxes: The effect of HN was studied in acute and chronic treatment models. […]
as §3

[4] = High fat diet (60% fat) for one month with daily injections of HNG: food intake, body weight, visceral fat, liver fat, serum lipids; format: in vivo, mice; conditions: HNG 2 mg/kg daily
Procedure: as §2
Chronic effects of Humanin on liver lipid content: Groups of animals were challenged with high fat diet (HFD-60% fat) for one month and were treated with either daily injections of saline or HNG (2 mg/kg). At the end of one month, liver fat were assessed both by histology and estimation of tissue triglycerides.

Apo B = test: Liver gene expression in HFD animals: Apo B; format: in vivo, mice; conditions: livers of HFD animals, HNG 2 mg/kg daily
From the text: as §1

FAS = test: Liver gene expression in HFD animals: FAS; format: in vivo, mice; conditions: data not shown
From the text: as §1

SREBP-1 = test: Liver gene expression in HFD animals: SREBP-1; format: in vivo, mice; conditions: data not shown
From the text: as §1

CPT1b = test: Liver gene expression in HFD animals: CPT1b; format: in vivo, mice; conditions: data not shown
From the text: as §1

| MTTP activity vs control (MTTP) | Sequence | expression of MTTP vs control [1] | triglyceride secretion from liver [2] | serum TG levels at 120 min ([3]; 120 min after tyloxapol 600 mg/kg, p<0.05 vs aCSF 4.33±0.33) | rate of TG secretion ([3]; (TG at 120 min − TG at 0 min)/number of hours, p<0.05 vs aCSF 2.23±0.16) | visceral fat (VF) gain vs control ([4]; HFD for 4 weeks) | weight gain vs control ([4]; HFD for 4 weeks) | liver fat (hepatic triglyceride content) ([4]; HFD one month, p<0.05 vs control 70.83±3.74) | expression of Apo B vs control (Apo B) | expression of FAS vs control (FAS) | expression of SREBP-1 vs control (SREBP-1) | expression of CPT1b vs control (CPT1b) |
| --- | --- | --- | --- | --- | --- | --- | --- | --- | --- | --- | --- | --- |
| significantly higher | MAPRGFSCLLLLTGEIDLPVKRRA (ANALOG OF HUMAN HUMANIN PEPTIDE) [HNG] | significantly higher | increases | 5.5 ± 0.29 mg/mL | 2.7 ± 0.2 mg/mL/h | gained significantly less VF | gained significantly less weight | 59.78±2.24 μg/mg of tissue | significantly higher | – | – | – |
| – | MAPRGFSCLLLLTSEIDLPVKRRA (HOMO SAPIENS) [HN, humanin peptide] | – | – | – | – | – | – | – | – | no differences | no differences | no differences |

Reference: patent US20130109635A1, “Humanin Decreases Liver Fat and Visceral Fat Accumulation” (priority 2011, published 2013)
